Values quoted from earlier work in publication PMC8812516 (Proceedings of the National Academy of Sciences of the …, 2022).

Tested on: Shaker-IR channel

For charybdotoxin, which “effect of inactivation on affinity of toxins” value is on record?
Its value is “inactivation does not alter the affinity of toxins for that channel”.
